Reference: the NIST ThermoML archive (doi:10.1016/j.tca.2012.01.013)

Assay: refractive index (Na D-line) (dimensionless); xn = mol fraction of the nth substance listed
Settings: 101 kPa, Liquid, Standard Abbe refractometry

COC(=O)c1ccccc1C(=O)OC [dimethyl 1,2-benzenedicarboxylate] + CCC(C)O
refractive index
Settings	x1 = 0.1002	x1 = 0.2014	x1 = 0.3002	x1 = 0.4001	x1 = 0.5002	x1 = 0.5991	x1 = 0.6993	x1 = 0.7996	x1 = 0.9015	x1 = 1
288.15 K	1.41917	1.43651	1.45122	1.46424	1.47591	1.48597	1.49516	1.50345	1.51115	1.51779
293.15 K	1.41698	1.43429	1.44898	1.46209	1.47367	1.48373	1.49296	1.50126	1.50899	1.51565
298.15 K	1.41476	1.43205	1.44672	1.45982	1.47143	1.48158	1.49076	1.49911	1.50685	1.51354
303.15 K	1.41252	1.42979	1.44444	1.45755	1.46921	1.47934	1.48856	1.49692	1.5047	1.51146
308.15 K	1.4102	1.42751	1.44214	1.45527	1.46689	1.47701	1.48633	1.49475	1.50256	1.50943
313.15 K	1.40779	1.42515	1.43975	1.45295	1.46458	1.47484	1.48415	1.49263	1.50047	1.50736
318.15 K	1.40549	1.42284	1.43749	1.45068	1.46236	1.47262	1.48194	1.49047	1.49835	1.50524
323.15 K	1.40309	1.42026	1.4351	1.4483	1.46001	1.47032	1.47972	1.48828	1.49621	1.5032
